Assays:
[1] = tested on: rat surgical incision injury model; assay: Rat surgical incision injury model, von Frey paw withdrawal threshold; assay type: in vivo, SD rats; details: rats, intravenous 0.3 mg/kg
Source text: (§1) 8-week-old male SD rats weighing 200 g-300 g were used as experimental animals to determine the effect of the compound of Example H02, the compound of Example H04, the compound of Example H10, the compound of Example H16, the compound of Example H17, the compound of Example H18, the compound of Example H21 and the compound of Example H24 on surgical pain in rats after intravenous administration. The analgesic effect of the compounds was discussed.
A certain amount of the compounds or TRV130 (MCE, 15150) was weighed, and dissolved in ethanol/castor oil/water=10/10/80 as a clear and transparent solution.
Three days after the rats were acclimatized to the experimental environment, the preoperative base value was determined, and followed by the surgical pain operation described below, about 24 hours after the surgery, the basic value was measured before administration on all animals, and mechanically hypersensitive animals (the paw withdrawal threshold (PWT) was less than 5 g) was randomly assigned to each administration group according to PWT. The pain threshold was determined 30 minutes and 60 minutes after intravenous administration of the positive drug TRV130 or each compound of the present invention (at a dose of 0.3 mg/kg).
The surgical procedure was performed aseptically, and the surgical instruments (scissors, tweezers, scalpels, surgical cotton and sutures) were sterilized before surgery. The animals were anesthetized with sodium pentobarbital (50 mg/kg, injected intraperitoneally), and the toes of the animals were squeezed to confirm that the animals were completely anesthetized before surgery. From the position of 0.5 cm away from the heel, an incision about 1 cm was made in the longitudinal direction of the toe. After cutting the skin, the musculus flexor digitorum brevis was raised and a blunt injury was caused longitudinally. After pressing to stop bleeding, the wound was sutured. When the animal was completely awake (free to move), the animal was put back into the cage (the reference of the construction of surgical pain model: Timothy J. Brennan, Erik P. Vandermeulen, G. F. Gebhart. Characterization of a rat model of incisional pain. Pain, 64(1996):493-501).
An up-down method was used for the determination of pain sensitivity. The mechanical pain results were expressed as animal paw withdrawal response threshold (PWT). The rat was placed separately in a plexiglass box with a mesh at the bottom of the box to ensure that the rat's feet could be tested. The rat was acclimatized for 15 minutes before the test, and after the acclimatization, the test fiber (von frey fiber, West coast) was used to test in the middle part of the hind foot of the rat. The test fibers included 8 test strengths: 3.61 (0.4 g), 3.84 (0.6 g), 4.08 (1 g), 4.31 (2 g), 4.56 (4 g), 4.74 (6 g), 4.93 (8 g), and 5.18 (15 g). During the test, the test fiber was pressed vertically against the skin and a force was applied to bend the fiber for 6-8 seconds, at an interval of 5 seconds between each test. During the test, the animal's rapid withdrawal was recorded as a pain response. When the test fiber left the animal's skin, the animal's withdrawal was also recorded as a pain response. Starting from 2 g, depending on whether the rats had any pain response, the test was changed into the next test intensity or the previous test intensity. A series of responses of the rats to different test intensities were recorded. […] Wherein, Xf was the logarithmic value of von Frey fiber used in the last test, and K value was the animal withdrawal reaction mode (recorded during the test), which was the value obtained after looking up the table according to the obtained sequence of “X” and “O”, δ=Mean of logarithmic difference between von Frey fibers used in the test.

[2] = target: T1, β-arrestin signaling pathway of MOR (Homo sapiens, UniProt P35372); assay: cell-based; details: PathHunter HEK293 cells, relative to endorphin MAX control
T1 construct: host or cells: HEK293 (PathHunter cell line)
T1 sequence (P35372 whole entry): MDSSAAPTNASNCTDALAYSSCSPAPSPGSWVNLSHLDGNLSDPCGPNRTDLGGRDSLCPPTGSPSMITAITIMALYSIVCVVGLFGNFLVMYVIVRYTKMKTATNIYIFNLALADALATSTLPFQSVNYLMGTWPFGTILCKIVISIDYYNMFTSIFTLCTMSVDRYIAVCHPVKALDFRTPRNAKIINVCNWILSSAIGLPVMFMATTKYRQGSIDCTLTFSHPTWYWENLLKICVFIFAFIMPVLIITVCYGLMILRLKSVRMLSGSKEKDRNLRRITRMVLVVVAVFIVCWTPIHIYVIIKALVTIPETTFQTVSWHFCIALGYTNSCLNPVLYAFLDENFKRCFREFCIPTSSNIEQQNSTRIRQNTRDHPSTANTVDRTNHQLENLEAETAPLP

[3] = target: T2, cAMP pathway of MOR receptor (Homo sapiens, UniProt P35372); assay: cell-based; details: cAMP Hunter HEK293 cells, forskolin-induced cAMP; read-out: EC50 of cAMP levels affected by agonistic effect on MOR
T2 construct: host or cells: HEK293 (cAMP Hunter cell line)
T2 sequence (P35372 whole entry): as above
Source text: The purpose of this experiment was to test the agonistic effect of the compounds of the invention on the cAMP pathway of MOR and to evaluate the in vitro activity of the compounds according to EC50.
In this experiment, HitHunter cAMP Assay EFC technology of DiscoverX was used to measure the cAMP level in cells and monitor the functional status of G-protein coupled receptors (GPCRs).
The amount of signal produced was directly proportional to the amount of cAMP in the cell.
The MOR receptor was bound to the inhibitory Gαi protein, so forskolin (for inducing cAMP signal) was used to induce cAMP expression in the experiment, and the inhibitory effect of the compounds on the above induction was measured.
The cAMP Hunter cell line (HEK293, DiscoverX) was removed from the freezer and expanded according to the Cell Standard Operating Procedure (SOP), 20 μL was collected and inoculated into a 384-well microplate and incubated at 37° C. overnight.
The HitHunter cAMP Assay test kit (DiscoverX, 90-0075sm) was used, the kit contained cAMP buffer, cAMP detection solution, and cAMP working solution A.
The formula was used to calculate the percentage of signal activity per well=100%×(1−(average RLU of the test samples−average RLU of the MAX controls)/(average RLU of the solvent controls−average RLU of the MAX controls)). wherein, the MAX control referred to the fluorescence signal value of the endorphin solution, and the solvent control referred to the fluorescence signal value of DMSO. The DiscoveRx CBIS data analysis workstation (ChemInnovation, CA) was used to perform statistical analysis of the percentage of signal activity and the concentration of the compounds by the agonist formula (comes with the software, universal) to calculate the EC50 value.

μ opioid receptor (MOR) = target: T3, μ opioid receptor (MOR) (Homo sapiens, UniProt P35372); assay: cell-based; details: HEK293 stably expressing μ opioid receptor, FLIPR calcium
T3 construct: host or cells: HEK293
T3 sequence (P35372 whole entry, species assumed): as the sequence (P35372 whole entry) above
Method: The purpose of the experiment was to test the agonistic effects of the compounds of the present invention on μ opioid receptor (MOR), κ opioid receptor (KOR) and δ opioid receptor (DOR), and to evaluate in vitro activity of the compounds according to the half-maximal effect concentration (EC50).
This test was performed using HEK293 cell lines (the stably expressed cell lines were provided by WuXi AppTec) which stably expressed μ opioid receptor, δ opioid receptor or κ opioid receptor respectively. […] The cells were centrifuged at 1000 rpm for 5 minutes at room temperature to precipitate. The supernatant was sucked out, be careful not to suck out cells. The precipitate was flicked into the loose cells and resuspend in 45 ml DMEM medium. The Vi-CELL XR automatic cell viability detector (BECKMAN COULTER) was used to count the cells, and the cell concentration was adjusted to 10×10^5 cells/ml based on the counting results.
Preparation of probenecid mother solution: 1 ml of FLIPR test solution was added to 77 mg probenecid to prepare a 250 mM solution. The solution was freshly prepared just before use.
The solution was freshly prepared just before use.
The cell plate prepared above was removed from the incubator and 20 ul 2× Fluo-4 Direct™ buffer was added thereto. The final volume in the cell plate was […]. The plate was incubated at 37° C., under 5% CO2 for 50 minutes, and incubated at room temperature for 10 minutes, then was placed into the FLIPR instrument (MD), and the compound plate and pipette box was placed into. The protocol was run on the […] platform, 10 μl of positive drug or the test compound was transfered to the cell plate from the compound plate, and the fluorescent signal was read.
The signal value generated by each well was calculated, and the calculation formula was that: the activity %=(signal value of the test compound−signal value of the solvent)/(signal value of the positive drug−signal value of the solvent).

SD rats = assay: Respiratory depression in rats, arterial blood gas PCO2; assay type: in vivo
Source text: as §1, with “H05,” for “H02,”, “H08,” for “H04,”, “H21,” for “H21”, “the partial pressure of blood” for “surgical pain”, “effects” for “analgesic effect”, “of the invention on respiratory depression were investigated.” for “was discussed.”
After the rats were acclimatized to the experimental environment for 3 days, each animal was anesthetized with sodium pentobarbital (50-60 mg/kg, ip), and then the right common carotid artery was isolated and the unilateral carotid artery tube-bury surgery was performed (PE60, ID*OD*length as 0.76 mm*1.22 mm*20 cm, buried into the artery 1 cm deep, and the tube was filled with heparin sodium tube sealing solution).

Cc1cc(F)cnc1C1(CCNCc2ccccc2OC(F)(F)F)CCOC2(CCCC2)C1 (stereo not shown) [Example H10, (2-trifluoromethoxybenzyl)-[2-(9-(3-methyl-5-fluoropyridin-2-yl)-6-oxaspiro[4.5]decan-9-yl)ethyl]amine]
50% PWT, 30 min after administration ([1]; 30 min): 8.05 ± 0.24 g | 50% PWT, 60 min after administration ([1]; 60 min): 7.59 ± 1.02 g | Emax [2]: 3.7% | EC50 [3]: 2.89 nM | EC50 (μ opioid receptor (MOR)): 2.15 nM | PCO2, 5 min before administration (SD rats; arterial blood, before administration): 35.72 ± 1.88 mmHg | PCO2, 5 min after administration (SD rats; intravenous single dose 0.3 mg/kg (morphine 24 mg/kg), 5 min): 37.48 ± 1.94 mmHg | PCO2, 30 min after administration (SD rats; intravenous single dose 0.3 mg/kg (morphine 24 mg/kg), 30 min): 35.03 ± 1.89 mmHg | PCO2, 60 min after administration (SD rats; intravenous single dose 0.3 mg/kg (morphine 24 mg/kg), 60 min): 36.27 ± 1.67 mmHg | PCO2, 120 min after administration (SD rats; intravenous single dose 0.3 mg/kg (morphine 24 mg/kg), 120 min): 36.83 ± 1.85 mmHg

Source: US11072601B2, “μ-opioid receptor agonist and preparation method therefor and use thereof in field of medicine” (SHANGHAI SYNERGY PHARMACEUTICAL SCIENCES CO., LTD., priority 2017, dated 2021)
